Measurements: ChEMBL document CHEMBL4813920, “Metronidazole-conjugates: A comprehensive review of recent developments towards synthesis and medicinal perspective” (Eur J Med Chem, 2021)
In brackets after ≈: the same amount, converted by molar mass.

Experiments:
[1] = system: Entamoeba histolytica; experiment: Antiamoebic activity against Entamoeba histolytica HM-1:IMSS trophozoites measured after 72 hrs by microdilution method; assay type: functional, organism-based
[2] = system: B16-F10; experiment: Antiproliferative activity against mouse B16-F10 cells incubated for 24 to 48 hrs by MTT assay; assay type: functional, cell-based
[3] = system: Giardia intestinalis; experiment: Antigiardial activity against Giardia intestinalis WB incubated for 2 days under anaerobic condition; assay type: functional, organism-based; conditions: Giardia duodenalis, 48 h
[4] = system: Entamoeba histolytica; experiment: Antiamoebic activity against Entamoeba histolytica HM-1:IMSS trophozoites incubated for 2 days under anaerobic condition; assay type: functional, organism-based; conditions: 48 h
[5] = system: Trichomonas vaginalis; experiment: Anti-trichomonas activity against Trichomonas vaginalis G3 incubated for 24 hrs by hemocytometer counting method; assay type: functional, organism-based; conditions: G3, 24 h
[6] = system: Tritrichomonas foetus; experiment: Anti-trichomonas activity against Trichomonas foetus C1 incubated for 24 hrs by hemocytometer counting method; assay type: functional, organism-based; conditions: C1, 24 h
[7] = system: Tritrichomonas foetus; experiment: Anti-trichomonas activity against Trichomonas foetus D1 incubated for 24 hrs by hemocytometer counting method; assay type: functional, organism-based; conditions: D1, 24 h
[8] = system: Escherichia coli; experiment: Antibacterial activity against Escherichia coli by microbroth dilution method; assay type: functional
[9] = system: Enterococcus faecalis; experiment: Antibacterial activity against Enterococcus faecalis by microbroth dilution method; assay type: functional
[10] = system: Pseudomonas aeruginosa; experiment: Antibacterial activity against Pseudomonas aeruginosa ATCC 27853 by microbroth dilution method; assay type: functional
[11] = system: Acinetobacter baumannii; experiment: Antibacterial activity against Acinetobacter baumannii by microbroth dilution method; assay type: functional
[12] = system: Candida parapsilosis; experiment: Antimicrobial activity against Candida parapsilosis ATCC 22019; assay type: functional; conditions: Lodderomyces parapsilosis
[13] = system: Candida albicans; experiment: Antimicrobial activity against Candida albicans ATCC 90023; assay type: functional
[14] = system: Escherichia coli; experiment: Potency index, ratio norfloxacin MIC to test compound MIC for antibacterial activity against Escherichia coli; assay type: functional
[15] = system: Enterococcus faecalis; experiment: Potency index, ratio norfloxacin MIC to test compound MIC for antibacterial activity against Enterococcus faecalis; assay type: functional
[16] = system: Pseudomonas aeruginosa; experiment: Potency index, ratio norfloxacin MIC to test compound MIC for antibacterial activity against Pseudomonas aeruginosa ATCC 27853; assay type: functional
[17] = system: Acinetobacter baumannii; experiment: Potency index, ratio norfloxacin MIC to test compound MIC for antibacterial activity against Acinetobacter baumannii; assay type: functional
[18] = system: Clostridium sporogenes; experiment: Antimicrobial activity against Clostridium sporogenes ATCC 19404 incubated for 24 hrs by broth microdilution method; assay type: functional
[19] = system: Escherichia coli; experiment: Antibacterial activity against Escherichia coli ATCC 8739 incubated for 24 hrs by broth microdilution method; assay type: functional
[20] = system: Staphylococcus aureus; experiment: Antibacterial activity against Staphylococcus aureus ATCC 6538P incubated for 24 hrs by broth microdilution method; assay type: functional
[21] = system: Clostridium perfringens; experiment: Antibacterial activity against Clostridium perfringens ATCC 13124 incubated for 48 hrs under anaerobic condition by MTT assay; assay type: functional
[22] = system: Leishmania braziliensis; experiment: Antileishmanial activity against promastigote form of Leishmania braziliensis MHOM/BR/75/M2903 measured for 7 days by cell counting method; assay type: functional; conditions: MHOM/BR/75/M2903, 168 h, time 7 day
[23] = system: Leishmania mexicana; experiment: Antileishmanial activity against promastigote form of Leishmania mexicana MHOM/BZ/82/Bel21 measured for 7 days by cell counting method; assay type: functional; conditions: MHOM/BZ/82/Bel21, 168 h, time 7 day
[24] = system: Entamoeba histolytica; experiment: Antiamoebic activity against Entamoeba histolytica HK9 ATCC 30015 incubated for 72 hrs by trypan blue staining based assay; assay type: functional, organism-based; conditions: ATCC 30015, 72 h
[25] = system: Giardia intestinalis; experiment: Antigiardial activity against Giardia intestinalis WB ATCC 30957 incubated for 72 hrs by trypan blue staining based assay; assay type: functional, organism-based; conditions: Giardia duodenalis, WB ATCC 30957, 72 h
[26] = system: Trichomonas vaginalis; experiment: Anti-trichomonas activity against Trichomonas vaginalis JT incubated for 48 hrs by hemocytometer based eosin exclusion assay; assay type: functional, organism-based
[27] = system: Trichomonas vaginalis; experiment: Anti-trichomonas activity against Trichomonas vaginalis CDC 085 incubated for 48 hrs by hemocytometer based eosin exclusion assay; assay type: functional, organism-based; conditions: CDC 085, 48 h
[28] = system: Trichomonas vaginalis; experiment: Anti-trichomonas activity against Trichomonas vaginalis GT3 incubated for 48 hrs; assay type: functional, organism-based; conditions: GT3, 48 h
[29] = system: Trichomonas vaginalis; experiment: Anti-trichomonas activity against Trichomonas vaginalis JT assessed as release of H2O2 at 0.229 uM preincubated for 3 hrs followed by DCFH-DA probe addition and measured after 30 mins by confocal microscopy; assay type: functional; conditions: time 3.5 hrs
[30] = system: Trichomonas vaginalis; experiment: Anti-trichomonas activity against Trichomonas vaginalis JT assessed as release of superoxide radical at 0.229 uM preincubated for 3 hrs followed by Dihydroethidium probe addition and measured after 30 mins by confocal microscopy; assay type: functional; conditions: time 3.5 hrs
[31] = Selectivity index, ratio of CC50 for African green monkey Vero cells to IC50 for antigiardial activity against Giardia intestinalis MSS:0696:1; assay type: toxicity; conditions: read-out: Ratio CC50/IC50
[32] = Selectivity index, ratio of CC50 for African green monkey Vero cells to IC50 for antigiardial activity against Trichomonas vaginalis GT3; assay type: toxicity; conditions: read-out: Ratio CC50/IC50

Work on `Cc1ncc([N+](=O)[O-])n1CCOC(=O)Nc1ccc(OCc2cccc(I)c2)cc1` yielded an IC50 [1] of 260 nM.
`Cc1ncc([N+](=O)[O-])n1CCOC(=O)Nc1ccc(OS(=O)(=O)c2ccc(C(F)(F)F)cc2)cc1` showed an IC50 [1] of 240 nM.
Compound `Cc1ccnc(NS(=O)(=O)c2ccc(/N=C\c3ccc(OCCn4c([N+](=O)[O-])cnc4C)cc3)cc2)n1` has an IC50 [2] of 220 nM.
Work on `Cc1ncc([N+](=O)[O-])n1CCn1cc(CN2C(=O)C(=C3OCCO3)c3cc(Br)ccc32)nn1` yielded an IC50 [3] of 800 nM and an IC50 [4] of 1500 nM.
In the case of `Cc1ncc([N+](=O)[O-])n1CCn1cc(CN2C(=O)/C(=N\NC(N)=S)c3ccccc32)nn1`, the IC50 [5] is reported as 2600 nM, the IC50 [6] is reported as 600 nM and the IC50 [7] is reported as 600 nM.
Compound `Cc1ncc([N+](=O)[O-])n1CC(O)CN1CCN(S(=O)(=O)c2ccc(N)cc2)CC1` (stereo not drawn) has an MIC [8] of 19 µM (≈ 8.07 µg/mL), an MIC [9] of 75 µM (≈ 31.8 µg/mL) and an MIC [10] of 38 µM (≈ 16.1 µg/mL). It also gave an MIC [11] of 75 µM (≈ 31.8 µg/mL), an MIC [12] of 75 µM (≈ 31.8 µg/mL) and an MIC [13] of 75 µM (≈ 31.8 µg/mL). The Ratio [14] was 84, the Ratio [15] was 11 and the Ratio [16] was 11. For the same compound, the Ratio [17] was 11.
In the case of `Cc1ncc([N+](=O)[O-])n1CCO` [METRONIDAZOLE], the MIC [18] is reported as 42.9 µM (≈ 7.34 µg/mL), the MIC [19] is reported as 5.48 mM (≈ 938 µg/mL) and the MIC [20] is reported as 2050 µM (≈ 351 µg/mL). The MIC [21] was 5.8 nM (≈ 0.000993 µg/mL), the LC50 [22] was greater than 1 mM and the LC50 [23] was greater than 1 mM. It also gave an IC50 [24] of 5.2 µM, an IC50 [25] of 5.7 µM and an IC50 [26] of 68 nM. The IC50 [27] was 490 nM, the IC50 [28] was 930 nM and the Activity [29] was 1800000 a.u. For the same compound, the Activity [30] was 350000 a.u, the selectivity ratio [31] was greater than 22 and the selectivity ratio [32] was greater than 107.
